Reference: patent publication US20230031406A1, “COMPOUNDS AND COMPOSITIONS FOR TREATING CONDITIONS ASSOCIATED WITH NLRP ACTIVITY” (Novartis AG, priority 2018, published 2023)
Like-named read-outs stand apart in the source and are kept apart here.

System: PMA-differentiated THP-1 cells
Assay: IL-1β production in PMA-differentiated THP-1 cells stimulated with gramicidin (hTHP-1 assay containing 2% fetal bovine serum; Procedures 1 and 2)
Assay type: cell-based, human
Details: 2% fetal bovine serum
Protocol: The following protocol is suitable for testing the activity of the compounds disclosed herein. Procedure 1: IL-1β Production in PMA-Differentiated THP-1 Cells Stimulated with Gramicidin.
THP-1 cells were purchased from the American Type Culture Collection and sub-cultured according to instructions from the supplier. Cells were cultured in complete RPMI 1640 (containing 10% heat inactivated FBS, penicillin (100 units/ml) and streptomycin (100 μg/ml)), and maintained in log phase prior to experimental setup. Prior to the experiment, compounds were dissolved in dimethyl sulfoxide (DMSO) to generate a 30 mM stock. The compound stock was first pre-diluted in DMSO to 3, 0.34, 0.042 and 0.0083 mM intermediate concentrations and subsequently spotted using Echo550 liquid handler into an empty 384-well assay plate to achieve desired final concentration (e.g. 100, 33, 11, 3.7, 1.2, 0.41, 0.14, 0.046, 0.015, 0.0051, 0.0017 μM). DMSO was backfilled in the plate to achieve a final DMSO assay concentration of 0.37%. The plate was then sealed and stored at room temperature until required.
THP-1 cells were treated with PMA (Phorbol 12-myristate 13-acetate) (20 ng/ml) for 16-18 hours. On the day of the experiment the media was removed and adherent cells were detached with trypsin for 5 minutes. Cells were then harvested, washed with complete RPMI 1640, spun down, and resuspended in RPMI 1640 (containing 2% heat inactivated FBS, penicillin (100 units/ml) and streptomycin (100 μg/ml). The cells were plated in the 384-well assay plate containing the spotted compounds at a density of 50,000 cells/well (final assay volume 50 μl). Cells were incubated with compounds for 1 hour and then stimulated with gramicidin (5 μM) (Enzo) for 2 hours. Plates were then centrifuged at 340 g for 5 min. Cell free supernatant (40 μL) was collected using a 96—CHannel PlateMaster (Gilson) and the production of IL-1β was evaluated by HTRF (cisbio). The plates were incubated for 18 h at 4° C. and read using the preset HTRF program (donor emission at 620 nm, acceptor emission at 668 nm) of the SpectraMax i3x spectrophotometer (Molecular Devices, software SoftMax 6). A vehicle only control and a dose titration of CRID3 (100-0.0017 μM) were run concurrently with each experiment.
Procedure 2: IL-1β Production in PMA-Differentiated THP-1 Cells Stimulated with Gramicidin.
THP-1 cells were purchased from the American Type Culture Collection and sub-cultured according to instructions from the supplier. Prior to experiments, cells were cultured in complete RPMI 1640 (containing 10% heat inactivated FBS, penicillin (100 units/ml) and streptomycin (100 μg/ml)), and maintained in log phase prior to experimental setup. Prior to the experiment THP-1 were treated with PMA (Phorbol 12-myristate 13-acetate) (20 ng/ml) for 16-18 hours. Compounds were dissolved in dimethyl sulfoxide (DMSO) to generate a 30mM stock. On the day of the experiment the media was removed and adherent cells were detached with trypsin for 5 minutes. Cells were then harvested, washed with complete RPMI 1640, spun down, resuspended in RPMI 1640 (containing 2% heat inactivated FBS, penicillin (100 units/ml) and streptomycin (100 μg/ml). The cells were plated in a 384-well plate at a density of 50,000 cells/well (final assay volume […]). Compounds were first dissolved in assay medium to obtain a 5× top concentration of 500 μM. 10 step dilutions (1:3) were then undertaken in assay medium containing 1.67% DMSO. 5× compound solutions were added to the culture medium to achieve desired final concentration (e.g. 100, 33, 11, 3.7, 1.2, 0.41, 0.14, 0.046, 0.015, 0.0051, 0.0017 μM). Final DMSO concentration was at 0.37%. Cells were incubated with compounds for 1 hour and then stimulated with gramicidin (5 μM) (Enzo) for 2 hours. Plates were then centrifuged at 340 g for 5 min. Cell free supernatant (40 μL) was collected using a 96—CHannel PlateMaster (Gilson) and the production of IL-1β was evaluated by HTRF (cisbio). […]

[1] = Homo sapiens, THP-1, Table B3, hTHP-1 assay, class symbols, read-out: IC50
[2] = Table B4, class symbols, read-out: hTHP-1 IC50
[3] = Table B2, class symbols, read-out: hTHP-1 IC50
[4] = Table B1, class symbols, read-out: Average IC50 of compounds in hTHP-1 assay: hTHP-1 IC50
[5] = Homo sapiens, THP-1, Table B2, class symbols, read-out: hTHP-1 IC50
[6] = Homo sapiens, THP-1, Table B4, class symbols, read-out: hTHP-1 IC50
[7] = Homo sapiens, THP-1, Table B2, numeric bounds, read-out: hTHP-1 IC50

SMILES: CCn1nc(S(N)(=O)=NC(=O)Nc2c(C)c(C(F)(F)F)nc3c2CCC3)cc1CO (centres unmarked) [Example 588, 1-Ethyl-5-(hydroxymethyl)-N′-((3-methyl-2-(trifluoromethyl)-6,7-dihydro-5H-cyclopenta[b]pyridin-4-yl)calbamoyl)-1H-pyrazole-3-sulfonimidamide]
- IC50 [1]: 1 to 5 µM

SMILES: NS(=O)(=NC(=O)Nc1c2c(nc(C(F)(F)F)c1-c1ccccc1)CCC2)c1nn(C(F)F)cc1F (single isomer, unassigned) [Example 765, (R) or (S)-1-(difluoromethyl)-4-fluoro-N′-((3-phenyl-2-(trifluoromethyl)-6,7-dihydro-5H-cyclopenta [b]pyridin-4-yl)carbamoyl)-1H-pyrazole-3-sulfonimidamide]
- IC50 [2]: 0.008 to 0.04 µM

SMILES: CC(C)n1cc(F)c(S(N)(=O)=NC(=O)Nc2c3c(nc4c2CC[C@H]4C)CCC3)n1 (single isomer, unassigned) [Example 758, (S) or (R)-4-fluoro-1-isopropyl-N′-(((R)-3-methyl-1,2,3,5,6,7-hexahydrodicyclopenta[b,e]pyridin-8-yl)carbamoyl)-1H-pyrazole-3-sulfonimidamide]
- IC50 [2]: 1 to 5 µM

SMILES: CC1(C)CCc2c1nc1c(c2NC(=O)N=S(N)(=O)c2sc(C(C)(O)CO)cc2F)CCC1 (centres unmarked) [Compound 640, 5-(1,2-Dihydroxypropan-2-yl)-N′-((3,3-dimethyl-1,2,3,5,6,7-hexahydrodicyclopenta[b,e]pyridin-8-yl)carbamoyl)-3-fluorothiophene-2-sulfonimidamide]
- IC50 [3]: 0.2 to 1 µM

SMILES: CN(C)Cc1ccc(S(=O)(=NC(=O)Nc2c3c(nc4c2CCC4)CCC3)NC(=O)OC(C)(C)C)cc1 (centres unmarked) [Compound 113, tert-butyl (4-((dimethylamino)methyl)-N-((1,2,3,5,6,7-hexahydrodicyclopenta[b,e]pyridin-8-yl)carbamoyl)phenylsulfonimidoyl)carbamate]
- IC50 (Homo sapiens, THP-1, Table B1, numeric bounds, read-out: Average IC50 of compounds in hTHP-1 assay: hTHP-1 IC50): > 30 µM

SMILES: Cc1c(C(F)(F)F)nc2c(c1NC(=O)N=S(N)(=O)c1cnc(C(C)(O)CO)s1)CCC2 (single isomer, unassigned) [Compound 605c]
- IC50 [3]: 0.2 to 1 µM

SMILES: CC(C)c1ncc(F)c(C(C)C)c1NC(=O)N=S(N)(=O)c1ncc(C(C)(C)O)s1 (centres unmarked) [Compound 165, N′-((5-fluoro-2,4-diisopropylpyridin-3-yl)carbamoyl)-5-(2-hydroxypropan-2-yl)thiazole-2-sulfonimidamide]
- IC50 [4]: 1 to 5 µM

SMILES: N[S@](=O)(=NC(=O)Nc1c2c(nc(C3CC3)c1C1CC1)CCC2)c1ccn(C(F)F)n1 [Compound 728a]
- IC50 [5]: 5 to 30 µM

SMILES: CC(C)(O)c1csc(S(N)(=O)=NC(=O)Nc2c3c(nc4c2CCC42CC2)CCC3)c1 (single isomer, unassigned) [Compound 114a, (R) or (S)-4-(2-hydroxy-propan-2-yl)-N′-((1′,5′,6′,7′-tetrahydro-2′H-spiro[cyclopropane-1,3′-dicyclopenta[b,e]pyridin]-8′-yl)carbamoyl)thiophene-2-sulfonimidamide]
- IC50 [4]: 0.04 to 0.2 µM

SMILES: Cc1nc2c(c(NC(=O)N=S(N)(=O)c3cc(C(C)(C)O)cs3)c1C(C)C)CCC2 (single isomer, unassigned) [Compound 622b, (R) or (S)-4-(2-Hydroxypropan-2-yl)-N′-((3-isopropyl-2-methyl-6,7-dihydro-5H-cyclopenta[b]pyridin-4-yl)carbamoyl) thiophene-2-sulfonimidamide]
- IC50 [5]: 5 to 30 µM

SMILES: CCn1cc(F)c(S(N)(=O)=NC(=O)Nc2c3c(nc4c2CCC4)CCC3)n1 (centres unmarked) [Example 736, 1-Ethyl-4-fluoro-N′-((1,2,3,5,6,7-hexahydrodicyclopenta[b,e]pyridin-8-yl)carbamoyl)-1H-pyrazole-3-sulfonimidamide]
- IC50 [6]: 0.2 to 1 µM

SMILES: CC(C)(O)c1scc(S(N)(=O)=NC(=O)Nc2c3c(nc4c2CCC4)CCC3)c1F (single isomer, unassigned) [Compound 701a, (R) or (S)-4-Fluoro-N′-((1,2,3,5,6,7-hexahydrodicyclopenta [b,e]pyridin-8-yl)carbamoyl)-5-(2-hydroxypropan-2-yl)thiophene-3-sulfonimidamide]
- IC50 [5]: 5 to 30 µM

SMILES: CC(O)c1csc([S@@](N)(=O)=NC(=O)Nc2c3c(nc4c2CC[C@H]4C)CCC3)c1 (stereo partly drawn) [compound 583, (S)-4-(1-hydroxyethyl)-N′-(((R)-3-methyl-1,2,3,5,6,7-hexahydrodicyclopenta[b,e]pyridin-8-yl)carbamoyl)thiophene-2-sulfonimidamide]
- IC50 [1]: 1 to 5 µM

SMILES: COC(C)(C)c1nc(CO)c(S(N)(=O)=NC(=O)Nc2c3c(nc4c2CCC4(C)C)CCC3)s1 (single isomer, unassigned) [Compound 648b, (S) or (R)-N′-((3,3-dimethyl-1,2,3,5,6,7-hexahydrodicyclopenta [b,e]pyridin-8-yl)carbamoyl)-4-(hydroxymethyl)-2-(2-methoxypropan-2-yl)thiazole-5-sulfonimidamide]
- IC50 [7]: > 30 µM

SMILES: CCc1c(C(F)(F)F)nc2c(c1NC(=O)N=S(N)(=O)c1sc(C(C)(C)O)cc1F)CCC2 (single isomer, unassigned) [Compound 611a, (S) or (R)-N′-((3-ethyl-2-(trifluoromethyl)-6,7-dihydro-5H-cyclopenta[b]pyridin-4-yl)carbamoyl)-3-fluoro-5-(2-hydroxypropan-2-yl)thiophene-2-sulfonimidamide]
- IC50 [3]: 5 to 30 µM

SMILES: CC(C)(O)c1ncc(S(N)(=O)=NC(=O)Nc2c3c(nc4c2CCC4O)CCC3)s1 (centres unmarked) [Compound 178, N′-((3-hydroxy-1,2,3,5,6,7-hexahydrodicyclopenta[b,e]pyridin-8-yl)carbamoyl)-2-(2-hydroxypropan-2-yl)thiazole-5-sulfonimidamide]
- IC50 (Homo sapiens, THP-1, Table B1, class symbols, read-out: Average IC50 of compounds in hTHP-1 assay: hTHP-1 IC50): 5 to 30 µM

SMILES: CCn1ncc(F)c1S(N)(=O)=NC(=O)Nc1c(C)c(C(F)(F)F)nc2c1CCC2 (centres unmarked) [compound 754, 1-Ethyl-4-fluoro-N′-((3-methyl-2-(trifluoromethyl)-6,7-dihydro-5H-cyclopenta[b]pyridin-4-yl)carbamoyl)-1H-pyrazole-5-sulfonimidamide]
- IC50 [6]: 1 to 5 µM

SMILES: CCc1c(C(F)(F)F)nc2c(c1NC(=O)N=S(N)(=O)c1sc(C(C)(C)O)cc1F)CCC2 (centres unmarked) [Compound 611, N′-((3-ethyl-2-(trifluoromethyl)-6,7-dihydro-5H-cyclopenta[b]pyridin-4-yl)carbamoyl)-3-fluoro-5-(2-hydroxypropan-2-yl)thiophene-2-sulfonimidamide]
- IC50 [5]: 0.2 to 1 µM

SMILES: Cc1c(C(=O)O)nc2c(c1NC(=O)N=S(N)(=O)c1cnc(C(C)(C)O)s1)CCC2 (centres unmarked) [Example 636, 4-(3-(Amino(2-(2-hydroxypropan-2-yl)thiazol-5-yl)(oxo)-l6-sulfaneylidene)ureido)-3-methyl-6,7-dihydro-5H-cyclopenta[b]pyridine-2-carboxylic acid]
- IC50 (Homo sapiens, THP-1, Table B3, hTHP-1 assay, numeric values, read-out: IC50): > 30 µM

SMILES: CCn1ccc([S@@](N)(=O)=NC(=O)Nc2c3c(nc(C4CC4)c2C2CC2)CCC3)n1 [Compound 726a]
- IC50 [7]: > 30 µM
